# Measured values reported in patent US8859287B2, “Compositions and methods for treatment of cancer using tissue-specific oncolytic adenoviruses” (The Johns Hopkins University, priority 2009, dated 2014).
# Experiments:
# [1] = tested on: p21/Waf-1 knockdown C4-2 cells; test: Cell death of p21/Waf-1 knockdown C4-2 cells treated with drug; type: cell-based
# C4-2 cells = test: MTS assay, growth inhibition and cytotoxicity, virus alone or with adriamycin; type: cell-based; conditions: adriamycin alone 0.1 μg/ml; by 72 hours
# Experimental: 3-(4,5)-Dimethylthiazol-2-yl)-5-(3-carboxy-methoxyphenyl)-2-(4-sulfophenyl)-2H-tetrazolium (MTS) assay: The metabolic viability of the cells was monitored using a MTS assay kit (CellTiter 96) from Promega (Madison, Wis.). Briefly cells are seeded onto 96-well plates and cultured in the presence of test agents for indicated time intervals. A mixture of MTS and phenazine methosulfate (an electron-coupling reagent; final concentrations 333 μg/ml and 25 μM, respectively) is added, and cells are incubated for 30 minutes at 37° C. Formazan formed from the reduction of MTS is quantified by measurement of absorbance of the medium at 490 nm using a microplate reader (All data have been normalized to the background signals).
# Combinatory studies of Adriamycin with Ad5-RV004.21 or Ad5-RV004 virus in C4-2 cells: Combination treatment of viruses with radiation or chemotherapy hold promise as a new strategy for cancer treatment. However, there are reports of attenuated cytotoxicity of CRAds when combined with chemotherapies (e.g., doxorubicin). […] Cell cytotoxicity is measured by MTS assay after 72 hours of treatment and followed every 24 hours for a total of 7 days. […] The predicted value for the combinatory effect can be calculated and is given by the dotted gray line.
compound,measurement,setting,value
COc1cccc2c1C(=O)c1c(O)c3c(c(O)c1C2=O)C[C@@](O)(C(=O)CO)C[C@@H]3O[C@H]1C[C@H](N)[C@H](O)[C@H](C)O1 [adriamycin],cell death in p21/Waf-1 knockdown C4-2 cells compared to the wild type cell lines,[1],increase in cell death
same,C4-2 cells killed,C4-2 cells,~50%
